Reference: US20150315241A1, “Antibiotic Peptides” (priority 2007, published 2015)
Where no end group is shown, it is not given here.

Columns and labels:
K. pneumonia 681 = format: cell-based, Klebsiella pneumoniae; details: 20 h
Outline: (§1)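 Two-fold serial dilution in 1% TSB, final 125 μg/mL to 60 ng/mL; inoculum 5×10^6 CFU/mL (before 1:1 mixing with peptide). Incubated 20 hrs at 37° C., growth read as absorbance at 595 nm, in triplicate with sterile water as negative control.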

S. typhi S5 = format: cell-based, Salmonella typhi; details: S5, 20 h
Outline: (§2)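 MIC by growth inhibition: overnight NB culture → 5×10^6 CFU/mL in 1% TSB; peptide 2-fold series, final 125 μg/mL to 60 ng/mL; 37° C., 20 hrs; OD595. n=3.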

E. coli 1103 = format: cell-based, Escherichia coli; details: 1103, 20 h
Outline: as §1

[1] = test system: S. enterica subsp. Enterica serovar. typhi G10215 ATCC 700408; format: cell-based, Salmonella enterica; details: ATCC 700408, 20 h
Outline: as §2

M. luteus ATCC 10240 = format: cell-based, Micrococcus luteus; details: ATCC 10240, 20 h
Outline: as §1

[2] = test system: R. radiobatter ATCC 15955; assay: Growth inhibition assay (MIC); format: cell-based, Rhizobium radiobacter; details: multidrug resistant strain; 1% TSB, 37° C., 20 hrs
Outline: as §2

K. Pneumonia 123132 = assay: Growth inhibition assay (MIC); format: cell-based, Klebsiella pneumoniae; details: multidrug resistant strain; 1% TSB, 37° C., 20 hrs
Outline: as §2

[3] = test system: K. Pneumonia K6, ATCC 700603; assay: Growth inhibition assay (MIC); format: cell-based, Klebsiella pneumoniae; details: multidrug resistant strain; 1% TSB, 37° C., 20 hrs
Outline: as §2

E. coli 45849 = assay: Growth inhibition assay (MIC); format: cell-based, Escherichia coli; details: multidrug resistant strain; 1% TSB, 37° C., 20 hrs
Outline: as §2

E. coli DC 2 = assay: Growth inhibition assay (MIC); format: cell-based, Escherichia coli; details: 1% TSB, 37° C., 20 hrs
Outline: as §1

E. coli BL 21 AI = assay: Growth inhibition assay (MIC); format: cell-based, Escherichia coli; details: 1% TSB, 37° C., 20 hrs
Outline: as §1

E. coli D31 = format: cell-based, Escherichia coli; details: D31, 20 h
Outline: as §2

Mycobacterium vaccae = format: cell-based; details: 20 h
Procedure: The minimal inhibition concentrations (MIC) of the apidaecin-derived peptides and peptide-derivatives were determined by a growth inhibition assay using a serial peptide dilution in sterilized round-bottom 96-well plates (polystyrene, U-bottom, Greiner Bio-One GmbH) with a final volume of 100 μL per well. The bacteria, e.g., E. coli BL21 A1, were grown in nutrient broth (NB, Carl Roth GmbH+Co. KG, Karlsruhe, Germany) at 37° C. over night. To each well of the 96-well plate, 50 μL of the overnight culture adjusted to 5×10^6 CFU/mL in 1% TSB were added. Lyophilized peptides and peptidomimetics were dissolved in 1% TSB (tryptic soy broth) or water to give a final concentration of 250 μg/mL. Fifty μL of the peptide or peptidomimetics solution were added to the first well of a row on the plate and mixed. Fifty μL of the first well containing the peptide solution were transferred to the second well, mixed and again 50 μL transferred to the next well and so on. Thereby, a two-fold dilution series was obtained starting at 250 μg/mL in the first well down to 120 ng/mL in the 12th well of a row giving a final peptide or peptidomimetics concentration from 125 μg/mL (well 1) to 60 ng/mL (well 12). Plates were incubated at 37° C. for 20 hrs. The absorbance was measured at 595 nm using a TECAN micro plate spectrophotometer (Tecan, Germany). All peptides and peptidomimetics were measured in triplicates. Sterilized water was used as a negative control.
The bacteria strains were tested: • Eschericha coli 1103, 10233, BL 21 AI, DC 2, • Klebsiella pneumoniae 681, • Micrococcus luteus ATCC 10240, • Mycobacterium vaccae • Bactillus subtillis 347.

B. subtilis 347 = format: cell-based, Bactillus subtillis; details: 347, 20 h
Outline: as §1

Row | Substance | MIC K. pneumonia 681 (K. pneumonia 681) [µg/mL] | MIC S. typhi S5 (S. typhi S5) [µg/mL] | MIC E. coli 1103 (E. coli 1103) [µg/mL] | MIC S. enterica subsp. Enterica serovar. typhi G10215 ATCC 700408 [1] [µg/mL] | MIC M. luteus ATCC 10240 (M. luteus ATCC 10240) [µg/mL] | MIC R. radiobatter ATCC 15955 [2] [µg/mL] | MIC K. Pneumonia 123132 (K. Pneumonia 123132) [µg/mL] | MIC K. Pneumonia K6, ATCC 700603 [3] [µg/mL] | MIC E. coli 45849 (E. coli 45849) [µg/mL] | MIC E. coli DC 2 (E. coli DC 2) [µg/mL] | MIC E. coli BL 21 AI (E. coli BL 21 AI) [µg/mL] | MIC E. coli D31 (E. coli D31) [µg/mL] | MIC Mycobacterium vaccae (Mycobacterium vaccae) [µg/mL] | MIC B. subtilis 347 (B. subtilis 347) [µg/mL]
1 | GNNRPVYIPKPRPPHPRI-NH2 [compound 17] | 31.25 | 16 | 1.95 | 4 to 8 | 0.98 | 0.65 | 16 | 32 | 8 | 31.25 | 0.98 | 32 | – | –
2 | GNNRPVYIPRPRPPHPRI-NH2 [compound 14] | 15.62 | – | 0.98 | 2 | 0.98 | – | – | 8 | – | 7.81 | 0.49 | 64 | – | –
3 | H-GNNKPVYIPRPRPPHPRLV-NH2 [compound 68] | 31.25 | – | 3.9 | – | 0.24 | – | – | – | – | 7.81 | 7.81 | – | 125 | >125
4 | H-GNNRPVYIPRPRPPHPRL-NH2 [compound 66] | 3.9 | – | 3.9 | – | 1.95 | – | – | – | – | 1.95 | 1.95 | – | 125 | 62.5
5 | H-GNNRPVYLPQPRPPHPRI-NH2 [compound 26] | 15.62 | 32 | 3.91 | 4 | 1.95 | 2.6 | 32 | 128 | 16 | 7.81 | 3.91 | >128 | – | –
